The text below walks through data of patent publication US5750530A, “Pharmaceutical diketopiperazine compounds” (Xenova Limited, priority 1994, dated 1998).

The target in this test is PAI-1 (Homo sapiens, UniProt P05121). In words: biochemical. Type of test: biochemical. To be noted: for IC50: PAI chromogenic substrate assay. A digest of the protocol:
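Compound preincubated with PAI-1 before addition to a tPA system; residual tPA converts plasminogen to plasmin, which cleaves chromogenic substrate S2251. Released p-nitroaniline read at 405 nm; values given as % inhibition at set concentrations or IC50.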

Where a name gives a salt, the structure may show the parent alone.

Chain of PAI-1 (P05121 24-402): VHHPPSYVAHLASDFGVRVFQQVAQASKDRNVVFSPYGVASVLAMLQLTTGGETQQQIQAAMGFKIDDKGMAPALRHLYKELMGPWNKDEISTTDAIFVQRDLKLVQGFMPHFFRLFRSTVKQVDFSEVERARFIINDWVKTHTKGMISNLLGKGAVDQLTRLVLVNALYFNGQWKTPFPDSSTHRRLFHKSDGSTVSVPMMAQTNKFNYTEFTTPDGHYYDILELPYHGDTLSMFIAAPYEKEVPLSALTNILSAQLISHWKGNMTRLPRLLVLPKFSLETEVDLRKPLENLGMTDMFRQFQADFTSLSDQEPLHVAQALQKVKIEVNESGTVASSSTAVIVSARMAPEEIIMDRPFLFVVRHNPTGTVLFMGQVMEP

With `CN(C)CCSc1ccc(/C=c2\[nH]c(=O)/c(=C/c3ccsc3)[nH]c2=O)cc1` [Compound 5133.HCl, (3Z,6Z)-6-(4-(2-Dimethylaminoethylthio)benzylidene)-3-(3-thienylmethylene)-2,5-piperazinedione], the IC50 – broadly, the concentration needed to halve the response being measured – was 3 µM. In addition, the % Inhibition (usually how much of the control response was suppressed) (20 μm) stood at 66%. Moreover, the “% Inhibition” value (100 μm) is given as 24%.

In the case of `COc1cccc(/C=c2\[nH]c(=O)/c(=C/c3ccc(SCCN(C)C)cc3)[nH]c2=O)c1` [Compound 5438, (3Z,6Z)-6-(4-(2-Dimethylaminoethylthio)benzylidene)-3-(3-methoxybenzylidene)-2,5-piperazinedione], under “20 μm”, the “% Inhibition” value was 18%.

As to `CN(C)CCSc1ccc(/C=c2\[nH]c(=O)/c(=C/c3ccc(OCc4ccccc4)cc3)[nH]c2=O)cc1` [Compound 5481, (3Z,6Z)-3-(4-Benzyloxybenzylidene)-6-(4-(2-dimethylaminoethylthio)benzylidene)-2,5-piperazinedione], the IC50 worked out at 20 µM. Moreover, the “% Inhibition” value (5 μm) is 9%. Besides, the “% Inhibition” value (20 μm) was 56%.

Turning to `CN(C)CCSc1sc(/C=c2\[nH]c(=O)/c(=C/c3ccccc3)[nH]c2=O)cc1[N+](=O)[O-]` [Compound 5403.HCl, (3Z,6Z)-6-Benzylidene-3-(5-(2-dimethylaminoethylthio)-4-nitro-2-thienyl)methylene-2,5-piperazinedione], the “% Inhibition” value is 12% (5 μm) and 60% (20 μm).

With `CN(C)CCSc1ccc(/C=c2\[nH]c(=O)/c(=C/c3cn(C)c4ccccc34)[nH]c2=O)s1` [Compound 5473.HCl, (3Z,6Z)-6-(5-(2-Dimethylaminoethylthio)-2-thienyl)methylene-3-(1-methyl-3-indolyl)methylene-2,5-piperazinedione], the IC50 is 20 µM. The “% Inhibition” value (5 μm) was 10%. Further, the “% Inhibition” value (20 μm) amounted to 54%.

Consider `CN(C)CCSc1ccc(/C=c2\[nH]c(=O)/c(=C/CC3CCCC(C)(C)C3)[nH]c2=O)s1` (centres unmarked) [Compound 5455, (3Z,6Z)-3-(5-(2-Dimethylaminoethylthio)-2-thienyl)methylene-6-(2-(3,3-dimethylcyclohexyl)ethylidene)-2,5-piperazinedione], for which 6.5 µM corresponded to half-maximal inhibition (IC50). For the same molecule, the “% Inhibition” value (5 μm) is on record as 30%. Moreover, for the setting “20 μm”, the “% Inhibition” value stood at 59%.

`Cc1ccc(/C=c2\[nH]c(=O)/c(=C/c3ccc(SCCN(C)C)cc3)[nH]c2=O)cc1` [Compound 5463, (3Z,6Z)-3-(4-(2-Dimethylaminoethylthio)benzylidene)-6-(4-methylbenzylidene)-2,5-piperazinedione] yielded an IC50 of 4 µM. Also, the “% Inhibition” value (5 μm) is recorded as 76%. Besides, the “% Inhibition” value (20 μm) was 78%.

`CN(C)CCSc1ccc(/C=c2\[nH]c(=O)/c(=C/c3ccc4ccccc4c3)[nH]c2=O)s1` [Compound 5286, (3Z,6Z)-3-(5-(2-Dimethylaminoethylthio)-2-thienyl)methylene-6-(2-naphthyl)methylene-2,5-piperazinedione] yielded an IC50 of 8 µM. Further, the “% Inhibition” value (20 μm) is 87%. Under “100 μm”, the “% Inhibition” value is listed as 98%.

For `CN(C)CCSc1ccc(/C=c2\[nH]c(=O)/c(=C/c3cccnc3)[nH]c2=O)s1` [Compound 5470, (3Z,6Z)-6-(5-(2-Dimethylaminoethylthio)-2-thienyl)methylene-3-(3-pyridylmethylene)-2,5-piperazinedione], the “% Inhibition” value runs as follows: (5 μm) 1%; (20 μm) 0%.

Consider `CN(C)CCSc1ccc(/C=c2\[nH]c(=O)/c(=C/c3ccc(OCc4ccccc4)cc3)[nH]c2=O)s1` [Compound 5482, (3Z,6Z)-6-(4-Benzyloxybenzylidene)-3-(5-(2-dimethylaminoethylthio)-2-thienyl)methylene-2,5-piperazinedione], for which the IC50 worked out at 20 µM. Also, for the setting “5 μm”, the “% Inhibition” value came to 12%. Further, the “% Inhibition” value (20 μm) is recorded as 50%.

Consider `CN(C)CCSc1ccc(/C=c2\[nH]c(=O)/c(=C/c3ccc(C(F)(F)F)cc3)[nH]c2=O)cc1` [Compound 5294, (3Z,6Z)-3-(4-(2-Dimethylaminoethylthio)benzylidene)-6-(4-trifluoromethylbenzylidene)-2,5-piperazinedione], for which the IC50 worked out at 2.5 µM.

Take `CN(C)CCSc1ccc(/C=c2\[nH]c(=O)/c(=C/c3ccccn3)[nH]c2=O)s1` [Compound 5471, (3Z,6Z)-6-(5-(2-Dimethylaminoethylthio)-2-thienyl)methylene-3-(2-pyridylmethylene)-2,5-piperazinedione]: the “% Inhibition” value is, setting by setting: (5 μm) 0%; (20 μm) 1%.

For `Cc1ccc(/C=c2\[nH]c(=O)/c(=C/c3ccc(SCCN(C)C)s3)[nH]c2=O)cc1` [Compound 5460.HCl, (3Z,6Z)-3-(5-(2-Dimethylaminoethylthio)-2-thienyl)methylene-6-(4-methylbenzylidene)-2,5-piperazinedione], the IC50 is 12.6 µM. Besides, the “% Inhibition” value (5 μm) worked out at 31%. Also, the “% Inhibition” value (20 μm) came out at 78%.
